The values that follow come from DBAASP.

Among the test systems are Staphylococcus aureus; Bacillus subtilis; Escherichia coli; Bacillus cereus.
Holding throughout (assay): ≥ marks a high value that may be exact or a test limit, other limits are often not marked, values filed in µg/mL are converted to µM
Assay [1] relates to Pseudomonas aeruginosa KCTC 1637.
Assay [2] has as its system Salmonella typhimurium KCTC 1926.
For assay [3], the system named is Bacillus subtilis KCTC 3068.
Assay [4] has as its system Staphylococcus aureus KCTC 1621.
Assay [5] relates to Escherichia coli KCTC 1682.
For assay [6], the system named is Staphylococcus epidermidis KCTC 1917.
Assay [7] has as its system Acinetobacter baumannii ATCC 19606.

Values after ≈ are worked out from the molar mass of the structure shown.

One may read the MIC as the lowest concentration that inhibits growth of the organism. Consider `CC[C@H](C)[C@H](NC(=O)[C@H](CCCN=C(N)N)NC(=O)[C@H](CCCN=C(N)N)NC(=O)[C@H](CC(C)C)NC(=O)[C@@H](N)CCCN=C(N)N)C(=O)N[C@@H](Cc1c[nH]c2ccccc12)C(=O)N[C@@H](Cc1c[nH]c2ccccc12)C(=O)N[C@H](C(=O)N[C@@H](CCCN=C(N)N)C(=O)N[C@H](C(=O)N[C@@H](CCCN=C(N)N)C(=O)N[C@@H](CCCN=C(N)N)C(N)=O)C(C)C)[C@@H](C)CC` [RLRRIWWIRVRR], for which the MIC in assay [1] was found to be 3.54 µM (≈ 6.25 µg/mL); in [2], 1.77 µM (≈ 3.13 µg/mL); in assay [3], 7.08 µM (≈ 12.5 µg/mL); in [4] it was 3.54 µM (≈ 6.25 µg/mL); in [5], 7.08 µM (≈ 12.5 µg/mL); in assay [6] it was 3.54 µM (≈ 6.25 µg/mL).
Consider `CC[C@H](C)[C@H](NC(=O)[C@H](CCCN=C(N)N)NC(=O)[C@H](CCCN=C(N)N)NC(=O)[C@@H](NC(=O)[C@@H](NC(=O)[C@H](CCCN=C(N)N)NC(=O)[C@H](CCCCN)NC(=O)[C@@H](N)Cc1c[nH]c2ccccc12)[C@@H](C)CC)C(C)C)C(=O)N[C@@H](Cc1c[nH]c2ccccc12)C(=O)N[C@@H](CCCN=C(N)N)C(=O)N[C@@H](Cc1c[nH]c2ccccc12)C(=O)N[C@@H](CC(C)C)C(=O)N[C@@H](CCCN=C(N)N)C(N)=O` [WKRIVRRIWRWLR], for which the MIC in assay [1] turned out to be 16 µM (≈ 30.8 µg/mL); in assay [2], 4 µM (≈ 7.69 µg/mL); in assay [3] it was 2 µM (≈ 3.85 µg/mL); in assay [4], 2 µM (≈ 3.85 µg/mL); in assay [5] it was 8 µM (≈ 15.4 µg/mL); in assay [6] it was 8 µM (≈ 15.4 µg/mL).
Turning to `CC[C@H](C)[C@H](NC(=O)[C@H](CC(C)C)NC(=O)[C@H](C)NC(=O)[C@H](CO)NC(=O)[C@H](CC(C)C)NC(=O)CN)C(=O)N[C@@H](CO)C(=O)N[C@@H](Cc1c[nH]c2ccccc12)C(=O)N[C@H](C(=O)N[C@@H](CCCCN)C(=O)N[C@@H](CCCN=C(N)N)C(=O)N[C@@H](CCCCN)C(=O)N[C@@H](CCCN=C(N)N)C(=O)N[C@@H](CCC(N)=O)C(=O)N[C@@H](CCC(N)=O)C(N)=O)[C@@H](C)CC` [GLSALISWIKRKRQQ], the MIC in the assay on Staphylococcus aureus worked out at 1.74 µM (≈ 3.1 µg/mL); with Bacillus subtilis, 0.897 µM (≈ 1.6 µg/mL); in the assay with Escherichia coli, 3.5 µM (≈ 6.25 µg/mL).
Take `CC[C@H](C)[C@H](N)C(=O)N[C@@H](CC(C)C)C(=O)NCC(=O)N[C@@H](CCCCN)C(=O)N[C@H](C(=O)N[C@@H](CC(C)C)C(=O)N[C@@H](CCC(=O)O)C(=O)NCC(=O)N[C@H](C(=O)N[C@@H](CCCCN)C(=O)N[C@@H](CO)C(=O)N[C@@H](CC(C)C)C(=O)N[C@@H](Cc1ccccc1)C(N)=O)[C@@H](C)CC)[C@@H](C)CC` [ILGKILEGIKSLF]: the MIC in [1] was 16 µM (≈ 22.9 µg/mL); in assay [2] it was 16 µM (≈ 22.9 µg/mL); in assay [4], 4 µM (≈ 5.72 µg/mL); in assay [5] it was 16 µM (≈ 22.9 µg/mL); in assay [6] it was no less than 32 µM.
Consider `CC[C@H](C)[C@H](N)C(=O)N[C@@H](Cc1c[nH]c2ccccc12)C(=O)N[C@@H](CC(N)=O)C(=O)N[C@@H](CCCCN)C(=O)N[C@H](C(=O)N[C@@H](C)C(=O)N[C@@H](CCCCN)C(=O)N[C@@H](CO)C(=O)N[C@H](C(=O)NCC(=O)N[C@@H](CCCCN)C(=O)N[C@H](C(=O)N[C@@H](CC(C)C)C(=O)N[C@@H](CCC(=O)O)C(=O)N[C@@H](CCCCN)C(=O)N[C@@H](C)C(=O)N[C@@H](CC(C)C)C(N)=O)C(C)C)[C@@H](C)CC)[C@@H](C)CC` [IWNKIAKSIGKVLEKAL], for which the results for the MIC in the assay with Bacillus subtilis and against Escherichia coli were no less than 35 µM and 15 µM (≈ 28.7 µg/mL), respectively.
In the case of `CSCC[C@H](NC(=O)[C@H](CO)NC(=O)[C@H](Cc1ccccc1)NC(=O)[C@@H](NC(=O)[C@H](C)NC(=O)[C@@H]1CCCN1C(=O)[C@H](Cc1ccccc1)NC(=O)[C@@H](NC(=O)[C@H](CCCCN)NC(=O)[C@H](CO)NC(=O)[C@H](C)NC(=O)[C@H](CC(C)C)NC(=O)[C@H](CCCCN)NC(=O)CNC(=O)[C@@H](NC(=O)[C@H](C)NC(=O)[C@@H](N)CO)C(C)C)C(C)C)C(C)C)C(=O)N[C@H](C(=O)N[C@H](C(=O)N[C@@H](CCCCN)C(=O)O)[C@@H](C)O)C(C)C` [SAVGKLASKVFPAVFSMVTK], the figures for the MIC in the assay on Escherichia coli and in the assay on Bacillus cereus were greater than 124 µM and no less than 124 µM, respectively.
The like results for `CC[C@H](C)[C@H](NC(=O)[C@H](CCSC)NC(=O)[C@H](CO)NC(=O)[C@@H](NC(=O)[C@H](CC(C)C)NC(=O)[C@H](CO)NC(=O)[C@@H]1CCCN1C(=O)[C@@H](NC(=O)[C@@H](NC(=O)[C@H](CCCCN)NC(=O)[C@H](CO)NC(=O)[C@H](C)NC(=O)[C@@H](NC(=O)[C@H](CCCN=C(N)N)NC(=O)CNC(=O)[C@@H](NC(=O)[C@H](Cc1ccccc1)NC(=O)[C@H](CO)NC(=O)[C@@H](N)CC(C)C)C(C)C)C(C)C)C(C)C)C(C)C)[C@@H](C)CC)C(=O)N[C@@H](CCCCN)C(=O)O` [LSFVGRVASKVVPSLISMIK] were, in that order, 120 µM (≈ 256 µg/mL) and no less than 120 µM.
With `CC[C@H](C)[C@H](NC(=O)[C@H](CC(C)C)NC(=O)[C@H](C)NC(=O)[C@@H]1CCCN1C(=O)[C@H](CC(C)C)NC(=O)CN)C(=O)N[C@@H](CO)C(=O)N[C@@H](Cc1c[nH]c2ccccc12)C(=O)N[C@H](C(=O)N[C@@H](CCCCN)C(=O)N[C@@H](CCCN=C(N)N)C(=O)N[C@@H](CCCCN)C(=O)N[C@@H](CCCN=C(N)N)C(=O)N[C@@H](CCC(N)=O)C(=O)N[C@@H](CCC(N)=O)C(N)=O)[C@@H](C)CC` [GLPALISWIKRKRQQ], the MIC in the assay on Staphylococcus aureus came to 3.12 µM (≈ 5.6 µg/mL); in the assay with Bacillus subtilis, 3.12 µM (≈ 5.6 µg/mL); in the assay on Escherichia coli, 49.5 µM (≈ 88.9 µg/mL).
Regarding `CC[C@H](C)[C@H](N)C(=O)N[C@@H](CC(N)=O)C(=O)N[C@@H](Cc1c[nH]c2ccccc12)C(=O)N[C@@H](CCCCN)C(=O)N[C@@H](CCCCN)C(=O)N[C@H](C(=O)N[C@@H](Cc1ccccc1)C(=O)N[C@@H](CCC(=O)O)C(=O)N[C@@H](CCCCN)C(=O)N[C@H](C(=O)N[C@@H](CO)C(=O)N[C@@H](CC(N)=O)C(=O)N[C@@H](CC(C)C)C(=O)N[C@H](C(N)=O)C(C)C)C(C)C)[C@@H](C)CC` [INWKKIFEKVSNLV], the MIC against Bacillus subtilis stood at 22.5 µM (≈ 38.6 µg/mL); in the assay on Escherichia coli, 12.5 µM (≈ 21.5 µg/mL).
In the case of `CC(C)C[C@H](NC(=O)[C@@H](N)Cc1ccccc1)C(=O)NCC(=O)N[C@@H](CCCCN)C(=O)N[C@H](C(=O)N[C@@H](Cc1ccccc1)C(=O)N[C@@H](CCCCN)C(=O)N[C@@H](CCCCN)C(=O)N[C@@H](C)C(=O)N[C@@H](CO)C(=O)N[C@@H](CCCCN)C(=O)N[C@H](C(=O)N[C@@H](Cc1ccccc1)C(=O)N1CCC[C@H]1C(=O)N[C@@H](C)C(=O)N[C@H](C(=O)N[C@@H](Cc1ccccc1)C(=O)NCC(=O)N[C@@H](CCCCN)C(=O)N[C@H](C(=O)O)C(C)C)C(C)C)C(C)C)C(C)C` [FLGKVFKKASKVFPAVFGKV], the MIC is greater than 58.2 µM against Staphylococcus aureus, 14.6 µM (≈ 32 µg/mL) against Escherichia coli and no less than 58.2 µM in the assay on Bacillus cereus.
`CC[C@H](C)[C@H](NC(=O)[C@H](Cc1c[nH]c2ccccc12)NC(=O)[C@H](CO)NC(=O)[C@H](CO)NC(=O)[C@H](CC(C)C)NC(=O)[C@H](C)NC(=O)[C@@H]1CCCN1C(=O)[C@H](CC(C)C)NC(=O)CN)C(=O)N[C@@H](CCCCN)C(=O)N[C@@H](CCCN=C(N)N)C(=O)N[C@@H](CCCCN)C(=O)N[C@@H](CCCN=C(N)N)C(=O)N[C@@H](CCC(N)=O)C(=O)N[C@@H](CCC(N)=O)C(N)=O` [GLPALSSWIKRKRQQ]: the MIC turned out to be 8.26 µM (≈ 14.6 µg/mL) in the assay with Staphylococcus aureus, 22.1 µM (≈ 39 µg/mL) against Bacillus subtilis and 176 µM (≈ 311 µg/mL) against Escherichia coli.
In turn, `CC[C@H](C)[C@H](NC(=O)[C@@H]1CCCN1C(=O)[C@H](CC(C)C)NC(=O)[C@@H](N)Cc1ccccc1)C(=O)N[C@@H](C)C(=O)NCC(=O)N[C@@H](CCCCN)C(=O)N[C@@H](CC(C)C)C(=O)N[C@@H](CC(C)C)C(=O)N[C@@H](CO)C(=O)NCC(=O)N[C@@H](CC(C)C)C(=O)N[C@@H](CO)C(=O)NCC(=O)N[C@@H](CC(C)C)C(=O)N[C@@H](CC(C)C)C(=O)O` [FLPIAGKLLSGLSGLL] yielded a minimal inhibitory concentration (MIC) in [7] greater than 62.5 µM.
As for `CC[C@H](C)[C@H](NC(=O)[C@H](CC(C)C)NC(=O)[C@H](C)NC(=O)[C@@H]1CCCN1C(=O)[C@H](CC(C)C)NC(=O)CN)C(=O)N[C@@H](CO)C(=O)N[C@@H](Cc1c[nH]c2ccccc12)C(=O)N[C@H](C(=O)N[C@@H](CCCCN)C(=O)N[C@@H](CCCN=C(N)N)C(=O)N[C@@H](CCCCN)C(=O)N[C@@H](CCCN=C(N)N)C(N)=O)[C@@H](C)CC` [GLPALISWIKRKR], the minimal inhibitory concentration (MIC) against Staphylococcus aureus is 0.845 µM (≈ 1.3 µg/mL); in the assay on Bacillus subtilis it was 0.423 µM (≈ 0.65 µg/mL); with Escherichia coli, 27.1 µM (≈ 41.7 µg/mL).
In the case of `CC(C)C[C@H](NC(=O)[C@@H](N)Cc1ccccc1)C(=O)NCC(=O)N[C@@H](CCCCN)C(=O)N[C@H](C(=O)N[C@@H](Cc1ccccc1)C(=O)N[C@@H](CCCCN)C(=O)NCC(=O)N[C@@H](C)C(=O)N[C@@H](CO)C(=O)N[C@@H](CCCCN)C(=O)N[C@H](C(=O)N[C@H](C(=O)N1CCC[C@H]1C(=O)N[C@@H](C)C(=O)N[C@H](C(=O)N[C@@H](Cc1ccccc1)C(=O)NCC(=O)N[C@@H](CCCCN)C(=O)N[C@H](C(=O)O)C(C)C)C(C)C)C(C)C)C(C)C)C(C)C` [FLGKVFKGASKVVPAVFGKV], the minimum inhibitory concentration (MIC) with Staphylococcus aureus is greater than 123 µM; against Escherichia coli, greater than 123 µM; against Bacillus cereus it was no less than 123 µM.
On to `CC[C@H](C)[C@H](NC(=O)[C@@H](NC(=O)[C@@H](NC(=O)[C@H](CCCCN)NC(=O)[C@@H](N)Cc1ccccc1)C(C)C)C(C)C)C(=O)N[C@@H](CO)C(=O)N[C@@H](CCCCN)C(=O)N1CCC[C@H]1C(=O)NCC(=O)N[C@@H](CC(C)C)C(=O)N[C@@H](CO)C(=O)N[C@H](C(=O)N[C@@H](CCCN=C(N)N)C(=O)N[C@H](C(=O)NCC(=O)N[C@H](C(=O)N[C@@H](C)C(=O)N[C@@H](CC(C)C)C(=O)N[C@H](C(=O)N[C@H](C(=O)O)[C@@H](C)O)C(C)C)[C@@H](C)O)C(C)C)C(C)C` [FKVVISKPGLSVRVGTALVT], for which the results for the MIC against Escherichia coli and with Bacillus cereus were greater than 61.8 µM and no less than 61.8 µM, respectively.
